Results as given in US7989464B2, “mGluR1 antagonists as therapeutic agents” (Schering Corporation, priority 2004, dated 2011).

target: T1, hmGluR1 receptor (Homo sapiens, UniProt Q13255); assay: IC50 determination: intracellular calcium mobilization (FLIPR) upon Quisqualate stimulation in CHO cells stably expressing hmGluR1; type: cell-based; details: against Quisqualate 1 μM (EC80), FLIPR calcium mobilization, read-out: IC50 Class
T1 construct: expressed in transfected cells
Method in brief: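 CHO cells stably expressing hmGluR1 were kept overnight in DMEM high glucose with GPT and 1 mM pyruvate, then loaded 2 h with Calcium 3 dye.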

T1 sequence (Q13255 19-1194): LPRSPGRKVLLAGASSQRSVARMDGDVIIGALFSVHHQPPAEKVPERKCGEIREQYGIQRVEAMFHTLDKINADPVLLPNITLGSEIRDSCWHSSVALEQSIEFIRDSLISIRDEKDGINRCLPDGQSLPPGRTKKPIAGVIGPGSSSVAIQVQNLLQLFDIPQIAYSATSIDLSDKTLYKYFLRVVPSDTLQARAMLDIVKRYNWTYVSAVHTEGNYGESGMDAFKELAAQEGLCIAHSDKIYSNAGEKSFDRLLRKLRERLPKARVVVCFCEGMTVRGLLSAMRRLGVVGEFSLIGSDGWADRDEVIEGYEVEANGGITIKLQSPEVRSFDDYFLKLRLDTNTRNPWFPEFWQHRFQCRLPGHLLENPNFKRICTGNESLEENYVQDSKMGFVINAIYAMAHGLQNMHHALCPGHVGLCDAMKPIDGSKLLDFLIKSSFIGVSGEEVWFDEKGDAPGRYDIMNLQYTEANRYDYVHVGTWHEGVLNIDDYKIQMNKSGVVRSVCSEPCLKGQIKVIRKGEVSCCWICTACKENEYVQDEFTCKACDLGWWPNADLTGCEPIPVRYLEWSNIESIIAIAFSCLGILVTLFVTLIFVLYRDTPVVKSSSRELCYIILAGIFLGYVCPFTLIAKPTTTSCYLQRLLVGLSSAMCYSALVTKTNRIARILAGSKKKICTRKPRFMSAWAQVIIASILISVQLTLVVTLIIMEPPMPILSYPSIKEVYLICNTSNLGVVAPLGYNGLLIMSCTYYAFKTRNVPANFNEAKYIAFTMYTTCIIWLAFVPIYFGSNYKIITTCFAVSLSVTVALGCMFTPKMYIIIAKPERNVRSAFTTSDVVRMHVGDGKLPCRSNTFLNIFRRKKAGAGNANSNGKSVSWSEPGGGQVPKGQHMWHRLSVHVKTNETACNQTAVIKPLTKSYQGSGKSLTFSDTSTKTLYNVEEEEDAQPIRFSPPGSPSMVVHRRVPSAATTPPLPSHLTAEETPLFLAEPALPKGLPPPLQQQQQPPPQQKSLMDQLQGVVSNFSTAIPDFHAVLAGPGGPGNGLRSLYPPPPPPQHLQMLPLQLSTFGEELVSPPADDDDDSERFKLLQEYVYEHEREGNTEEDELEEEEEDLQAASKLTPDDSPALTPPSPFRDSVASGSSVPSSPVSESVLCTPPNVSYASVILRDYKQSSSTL

IC50, > 1000 nM:
Cc1ccc(-n2cnc3c(sc4ncnc(NCC(C)(C)C)c43)c2=O)cc1 [95FP]
Cc1ccc(-n2cnc3c(sc4ncnc(Nc5ccccc5)c43)c2=O)cc1 [95FW]
O=c1c2sc3ncnc(Nc4ccccc4)c3c2ncn1-c1ccc(F)cc1 [95FZ]
COc1ccc(-n2cnc3c(sc4ncnc(Nc5ccccc5)c43)c2=O)cc1F [95GA]
Cc1ccc(-n2cnc3c(sc4ncnc(Nc5ccccc5)c43)c2=O)cc1F [95GB]
O=c1c2sc3ncnc(Nc4ccccc4)c3c2ncn1-c1ccccc1 [95GC]
O=c1c2sc3ncnc(Nc4ccccc4)c3c2ncn1-c1ccc2ncsc2c1 [95GD]
O=c1c2sc3ncnc(Nc4ccccc4)c3c2ncn1-c1ccc2scnc2c1 [95GE]
O=c1c2sc3ncnc(Nc4ccccc4)c3c2ncn1-c1ccc(Br)cc1 [95GF]
O=c1c2sc3ncnc(Nc4ccccc4)c3c2ncn1-c1ccc2c(c1)OCO2 [95GG]
COc1ccc(Nc2ncnc3sc4c(=O)n(-c5ccc(F)cc5)cnc4c23)cc1 [95GK]
CCn1cnc2c(sc3ncnc(Nc4ccc(OC)cc4)c32)c1=O [95GM]
COc1ccc(Nc2ncnc3sc4c(=O)n(C)cnc4c23)cc1 [95GN]
COc1ccc(-n2cnc3c(sc4ncnc(OC)c43)c2=O)cc1 [95GO]
CN(C)c1cccc2sc3c(=O)n(-c4ccccc4Cl)cnc3c12 [103G]
CN(C)c1cccc2sc3c(=O)n(-c4cccc(Cl)c4)cnc3c12 [103H]
CN(C)c1cccc2sc3c(=O)n(-c4cccc(Cl)c4Cl)cnc3c12 [103I]
CN(C)c1cccc2sc3c(=O)n(-c4ccc(Cl)c(Cl)c4)cnc3c12 [103J]
CN(C)c1cccc2sc3c(=O)n(-c4cc(Cl)cc(Cl)c4)cnc3c12 [103K]
CN(C)c1cccc2sc3c(=O)n(-c4ccccc4F)cnc3c12 [103L]
CN(C)c1cccc2sc3c(=O)n(-c4cccc(F)c4F)cnc3c12 [103O]

IC50, 50 to 150 nM:
Cc1nc(N)c2c(n1)sc1c(=O)n(-c3ccc(F)cc3)cnc12 [95EW]
C=C(C)CNc1ncnc2sc3c(=O)n(-c4ccc(OC)c(F)c4)cnc3c12 [95FB]
C=C(C)CNc1ncnc2sc3c(=O)n(-c4cccc(Cl)c4)cnc3c12 [95FK]
C#CCNc1nc(C)nc2sc3c(=O)n(-c4ccc(OC)cc4)cnc3c12 [95FM]
COc1ccc(-n2cnc3c(sc4ncnc(N)c43)c2=O)cc1 [95FU]
COc1ccc(Nc2ncnc3sc4c(=O)n(-c5ccc(Cl)cc5)cnc4c23)cc1 [95GH]
COc1ccc(Nc2ncnc3sc4c(=O)n(-c5ccc(C)cc5)cnc4c23)cc1 [95GJ]

IC50, < 50 nM:
Cc1nc(N)c2c(n1)sc1c(=O)n(-c3ccc(Cl)cc3)cnc12 [95EV]
Cc1nc(N)c2c(n1)sc1c(=O)n(-c3ccccc3)cnc12 [95EX]
C=C(C)CNc1ncnc2sc3c(=O)n(-c4ccc(C)cc4)cnc3c12 [95EY]
C=C(C)CNc1ncnc2sc3c(=O)n(-c4ccc(Cl)cc4)cnc3c12 [95EZ]
C=C(C)CNc1ncnc2sc3c(=O)n(-c4ccc(Br)cc4)cnc3c12 [95FA]
C=C(C)CNc1ncnc2sc3c(=O)n(-c4ccc5scnc5c4)cnc3c12 [95FC]
C=C(C)CNc1ncnc2sc3c(=O)n(-c4ccc5sccc5c4)cnc3c12 [95FE]
C=C(C)CNc1ncnc2sc3c(=O)n(-c4ccc5c(c4)OCCO5)cnc3c12 [95FF]
CCCNc1ncnc2sc3c(=O)n(-c4ccc(C)cc4)cnc3c12 [95FG]
C=C(C)CNc1ncnc2sc3c(=O)n(-c4ccccc4)cnc3c12 [95FH]
C=C(C)CNc1ncnc2sc3c(=O)n(-c4ccc(F)cc4)cnc3c12 [95FI]
C=C(C)CNc1ncnc2sc3c(=O)n(C4CCCC4)cnc3c12 [95FL]
CSCCNc1ncnc2sc3c(=O)n(-c4ccc(C)cc4)cnc3c12 [95FR]
CSCCNc1ncnc2sc3c(=O)n(-c4ccc(Cl)cc4)cnc3c12 [95FS]
C=C(C)CNc1ncnc2sc3c(=O)n(-c4ccc(OC)cc4)cnc3c12 [95FT]
C=CCNc1ncnc2sc3c(=O)n(-c4ccc(OC)cc4)cnc3c12 [95GP]

IC50, 150 to 1000 nM:
COc1ccc(-n2cnc3c(sc4nc(C)nc(N)c43)c2=O)cc1 [95EU]
C=C(C)CNc1ncnc2sc3c(=O)n(-c4ccncc4)cnc3c12 [95FJ]
COc1ncnc2sc3c(=O)n(-c4ccc(C)cc4)cnc3c12 [95FN]
COc1ncnc2sc3c(=O)n(-c4ccc(Cl)cc4)cnc3c12 [95FO]
Cc1ccc(-n2cnc3c(sc4ncnc(NCC5CCCO5)c43)c2=O)cc1 (stereo not drawn) [95FQ]
Cc1ccc(-n2cnc3c(sc4ncnc(NCc5cccs5)c43)c2=O)cc1 [95FV]
O=c1c2sc3ncnc(Nc4ccccc4)c3c2ncn1-c1ccc(Cl)cc1 [95FX]
COc1ccc(Nc2ncnc3sc4c(=O)n(-c5ccccc5)cnc4c23)cc1 [95GI]
COc1ccc(Nc2ncnc3sc4c(=O)n(C5CC5)cnc4c23)cc1 [95GL]
COc1ccc(-n2cnc3c(sc4ncnc(NCc5ccco5)c43)c2=O)cc1 [95GQ]
CN(C)c1cccc2sc3c(=O)n(-c4cccc(F)c4)cnc3c12 [103M]
CN(C)c1cccc2sc3c(=O)n(-c4ccc(F)cc4)cnc3c12 [103N]
CN(C)c1cccc2sc3c(=O)n(-c4ccc(F)c(F)c4)cnc3c12 [103P]
CN(C)c1cccc2sc3c(=O)n(-c4cc(F)cc(F)c4)cnc3c12 [103Q]
CNc1cccc2sc3c(=O)n(-c4ccc(Cl)cc4)cnc3c12 [103R]
COc1cccc2sc3c(=O)n(-c4ccc(Cl)cc4)cnc3c12 [103S]

same assay, conditions: against Quisqualate 1 μM (EC80), class symbols, read-out: mGIuR 1 IC50

IC50, 150 to 1000 nM:
CCNc1ncnc2sc3c(=O)n(-c4ccc(OC(F)(F)F)cc4)cnc3c12 [95V]
CN(C)c1cccc2sc3c(=O)n(C4CCCCC4)cnc3c12 [103B]
CN(C)c1cccc2sc3c(=O)n(-c4ccccc4)cnc3c12 [103C]
CN(C)c1cccc2sc3c(=O)n(-c4ccc5scnc5c4)cnc3c12 [103F]
Cc1nc2c(sc3nccc(NC4CC4)c32)c(=O)n1-c1ccccc1 [113C]
Cc1ccc(-n2c(C)nc3c(sc4nccc(NC5CC5)c43)c2=O)cc1 [113J]
Cc1ccc(-n2c(C)nc3c(sc4nccc(NCC(F)(F)F)c43)c2=O)cc1 [113L]
CCCc1nc2c(sc3nccc(N(C)C)c32)c(=O)n1-c1ccc(C)cc1 [116B]
CCCCc1nc2c(sc3nccc(N(C)C)c32)c(=O)n1-c1ccc(C)cc1 [116C]

IC50, < 50 nM:
CN(C)c1ncnc2sc3c(=O)n(-c4ccc5c(c4)CCO5)cnc3c12 [95E]
CCN(C)c1ncnc2sc3c(=O)n(-c4ccc(C)cc4)cnc3c12 [95H]
CCN(C)c1ncnc2sc3c(=O)n(-c4ccc5ncsc5c4)cnc3c12 [95I]
CCN(C)c1ncnc2sc3c(=O)n(-c4ccc5c(c4)OCC5)cnc3c12 [95K]
CCN(C)c1ncnc2sc3c(=O)n(-c4ccc(SC)cc4)cnc3c12 [95L]
Cc1ccc(-n2cnc3c(sc4ncnc(N(C)C)c43)c2=O)cn1 [95O]
CCNc1ncnc2sc3c(=O)n(-c4ccc(C)cc4)cnc3c12 [95P]
CN(C)c1ncnc2sc3c(=O)n(-c4ccc(OC(F)F)cc4)cnc3c12 [95Q]
CCN(C)c1ncnc2sc3c(=O)n(-c4ccc(OC(F)(F)F)cc4)cnc3c12 [95R]
CCN(C)c1ncnc2sc3c(=O)n(-c4ccc(OC(F)F)cc4)cnc3c12 [95T]
CCN(C)c1ncnc2sc3c(=O)n(-c4ccc(C)nc4)cnc3c12 [95U]
CCNc1ncnc2sc3c(=O)n(-c4ccc(OC(F)F)cc4)cnc3c12 [95W]
CCN(C)c1ncnc2sc3c(=O)n(-c4ccc(C(F)(F)F)cc4)cnc3c12 [95Y]
Cc1ccc(-n2c(C)nc3c(sc4nccc(N(C)C)c43)c2=O)cc1 [113A]
Cc1nc2c(sc3nccc(N(C)C)c32)c(=O)n1-c1ccccc1 [113B]
CCN(C)c1ccnc2sc3c(=O)n(-c4ccccc4)c(C)nc3c12 [113D]
CNc1ccnc2sc3c(=O)n(-c4ccccc4)c(C)nc3c12 [113E]
CCNc1ccnc2sc3c(=O)n(-c4ccccc4)c(C)nc3c12 [113F]
CNc1ccnc2sc3c(=O)n(-c4ccc(C)cc4)c(C)nc3c12 [113G]
CCNc1ccnc2sc3c(=O)n(-c4ccc(C)cc4)c(C)nc3c12 [113H]
CCN(C)c1ccnc2sc3c(=O)n(-c4ccc(C)cc4)c(C)nc3c12 [113I]
C#CCNc1ccnc2sc3c(=O)n(-c4ccc(C)cc4)c(C)nc3c12 [113K]
COc1ccc(-n2c(C)nc3c(sc4nccc(N(C)C)c43)c2=O)cc1 [116D]

IC50, 50 to 150 nM:
CCN(C)c1ncnc2sc3c(=O)n(-c4cccnc4)cnc3c12 [95M]
CN(C)c1cccc2sc3c(=O)n(-c4ccc(Cl)cc4)cnc3c12 [103A]
Cc1ccc(-n2cnc3c(sc4cccc(N(C)C)c43)c2=O)cc1 [103D]
COc1ccc(-n2cnc3c(sc4cccc(N(C)C)c43)c2=O)cc1 [103E]
CCCN(C)c1ccnc2sc3c(=O)n(-c4ccc(C)cc4)c(C)nc3c12 [113M]
Cc1ccc(-n2c(C)nc3c(sc4nccc(NCCO)c43)c2=O)cc1 [113N]
CCc1nc2c(sc3nccc(N(C)C)c32)c(=O)n1-c1ccc(C)cc1 [116A]
